For one data set, the system named is AGS. The data set is described as follows: Cell proliferation experiment (CellTiter-Glo). The data set is classed as cell-based. Conditions: read-out: IC50(nM) AGS. On the technique in general: In ATP-based viability assays light output follows the ATP content of the culture.
Another data set concerns H358. The data set is described as follows: Cell proliferation experiment (CellTiter-Glo). The data set is classed as cell-based. The settings on record: H358, KRAS mutation type G12C, 96 h incubation.
The next data set has as its system SW620. The experiment in a line: Cell proliferation experiment (CellTiter-Glo). The data set is classed as cell-based. Conditions: read-out: IC50(nM) SW620.
Data set [1] has as its target T1, KRAS G12D (Homo sapiens, UniProt P01116, G12D).
A short description of data set [2]: in vitro. Conditions: human, microsomes.
A short description of data set [3]: in vitro. The settings on record: rat, microsomes.
A short description of data set [4]: in vitro. The settings on record: mouse, microsomes.
Data set [5] is described as follows: in vitro. Conditions: dog, microsomes.
Data set [6] concerns the target T1, KRAS G12D. The data set is described as follows: cell-based. The settings on record: AGS.

SMILES strings stand for the structures. Read-outs that look alike come from different tables or passages of the source.

T1 sequence (P01116 1-188 isoform P01116-2 G12D): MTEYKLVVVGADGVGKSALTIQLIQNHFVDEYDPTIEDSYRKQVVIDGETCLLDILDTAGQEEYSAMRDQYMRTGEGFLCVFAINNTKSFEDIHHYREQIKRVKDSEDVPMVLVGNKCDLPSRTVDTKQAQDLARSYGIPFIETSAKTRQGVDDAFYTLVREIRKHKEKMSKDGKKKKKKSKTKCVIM

As usually defined, the IC50 is the concentration that gives 50% inhibition. Take `CCc1c(F)ccc2cc(O)cc(-c3ncc4c(N5CCCC(C)(O)C5)nc(OCC5(CN6CCC(COc7ccc(C(=O)N[C@H](C(=O)N8C[C@H](O)C[C@H]8C(=O)N[C@@H](C)c8ccc(-c9scnc9C)cc8)C(C)(C)C)cc7)CC6)CC5)nc4c3F)c12` (stereo partly drawn) [Compound 1, (2S,4R)-1-((2S)-2-(4-((1-((1-(((7-(8-ethyl-7-fluoro-3-hydroxynaphthalen-1-yl)-8-fluoro-4-(3-hydroxy-3-methylpiperidin-1-yl)pyrido[4,3-d]pyrimidin-2-yl)oxy)methyl)cyclopropyl)methyl)piperidin-4-yl)methoxy)benzamido)-3,3-dimethylbutanoyl)-4-hydroxy-N-((S)-1-(4-(4-methylthiazol-5-yl)phenyl)ethyl)pyrrolidine-2-carboxamide]: the IC50 with AGS (Homo sapiens, AGS, 96 h) was 109 nM; with H358 (Homo sapiens, NCI-H358), 1080 nM.

Take `C#Cc1c(F)ccc2cc(O)cc(-c3ncc4c(N5CCCn6nc(C(=O)N(C)C)cc6C5)nc(OCC5(CN6CCC(COc7ccc(C(=O)N[C@H](C(=O)N8C[C@H](O)C[C@H]8C(=O)N[C@@H](C)c8ccc(-c9scnc9C)cc8)C(C)(C)C)cc7)CC6)CC5)nc4c3F)c12` [Compound 89]: the IC50 in the data set with AGS was 193 nM; in the data set with SW620, 1420 nM; in the data set on H358, 635 nM.

The term microsomal CLint denotes the capacity of the preparation to metabolise the compound, expressed as a volume cleared per time. Higher therefore signals rapid turnover. On to `CCc1c(F)ccc2cc(O)cc(-c3ncc4c(N5CCC[C@@](C)(O)C5)nc(OCC5(CN6CCC(F)(COc7cc([C@H](C(=O)N8C[C@H](O)C[C@H]8C(=O)N[C@@H](C)c8ccc(-c9scnc9C)cc8)C(C)C)on7)CC6)CC5)nc4c3F)c12` [Compound 100], for which the IC50 in the data set with AGS (Homo sapiens, AGS, 96 h) is 11 nM; in the data set on SW620 (Homo sapiens, SW-620, 96 h), 38 nM. This molecule also displayed a DC50 at KRAS G12D [1] of 9.5 nM. Further, the microsomal CLint was 47 µL/min/mg in the data set “in vitro [2]”, 7.9 µL/min/mg in the data set “in vitro [3]”, 3.2 µL/min/mg in “in vitro [4]” and 57.5 µL/min/mg in the data set “in vitro [5]”. The Dmax on KRAS G12D [6] is 95%.

Consider `CCc1c(F)ccc2cc(O)cc(-c3ncc4c(N5CCC[C@@](C)(O)C5)nc(OCC5(CN6CCC7(CC6)CN(c6cc([C@H](C(=O)N8C[C@H](O)C[C@H]8C(=O)N[C@@H](C)c8ccc(-c9scnc9C)cc8)C(C)C)on6)C7)CC5)nc4c3F)c12` [Compound 105], for which, in the data set with AGS (Homo sapiens, AGS, 96 h), the IC50 was found to be 12 nM. This molecule registered a DC50 on KRAS G12D [1] of 8.9 nM. In addition, the microsomal CLint came out at 9.9 µL/min/mg in “in vitro [2]”, 5.9 µL/min/mg in the data set “in vitro [3]”, 13.3 µL/min/mg in “in vitro [4]” and 28.5 µL/min/mg in the data set “in vitro [5]”. Also, the Dmax at KRAS G12D [6] came out at 95%.

Regarding `CCc1c(F)ccc2cc(O)cc(-c3ncc4c(N5CCC[C@@](C)(O)C5)nc(OCC5(CN6CCN(CC7CCN(c8cc([C@H](C(=O)N9C[C@H](O)C[C@H]9C(=O)N[C@@H](C)c9ccc(-c%10scnc%10C)cc9)C(C)C)on8)CC7)CC6)CC5)nc4c3F)c12` [Compound 111], the IC50 in the data set with AGS (Homo sapiens, AGS, 96 h) turned out to be 20 nM. For the same molecule, the DC50 on KRAS G12D [1] came out at 21 nM. The microsomal CLint was found to be 21.7 µL/min/mg in the data set “in vitro [2]”, 15.7 µL/min/mg in the data set “in vitro [3]”, 10.6 µL/min/mg in the data set “in vitro [4]” and 8.4 µL/min/mg in “in vitro [5]”. At KRAS G12D [6], this molecule had a Dmax of 95%.

Consider `CCc1c(F)ccc2cc(O)cc(-c3ncc4c(N5CCC[C@@](C)(O)C5)nc(OCC5(CN6C[C@@H]7CN(c8cc([C@H](C(=O)N9C[C@H](O)C[C@H]9C(=O)N[C@@H](C)c9ccc(-c%10scnc%10C)cc9)C(C)C)on8)C[C@@H]7C6)CC5)nc4c3F)c12` [Compound 113], for which the IC50 is 8.3 nM with AGS (Homo sapiens, AGS, 96 h) and 49 nM in the data set on SW620 (Homo sapiens, SW-620, 96 h). Also, the DC50 at KRAS G12D [1] is 9.3 nM. At KRAS G12D [6], this molecule returned a Dmax of 95%.

On to `CCc1c(F)ccc2cc(O)cc(-c3ncc4c(N5CCC[C@@](C)(O)C5)nc(OCC5(CN6CCC(Oc7cc([C@H](C(=O)N8C[C@H](O)C[C@H]8C(=O)N[C@@H](C)c8ccc(-c9scnc9C)cc8)C(C)C)on7)CC6)CC5)nc4c3F)c12` [Compound 114, (2S,4R)-1-((R)-2-(3-((1-((1-(((7-(8-ethyl-7-fluoro-3-hydroxynaphthalen-1-yl)-8-fluoro-4-((R)-3-hydroxy-3-methylpiperidin-1-yl)pyrido[4,3-d]pyrimidin-2-yl)oxy)methyl)cyclopropyl)methyl)piperidin-4-yl)oxy)isoxazol-5-yl)-3-methylbutanoyl)-4-hydroxy-N-((S)-1-(4-(4-methylthiazol-5-yl)phenyl)ethyl)pyrrolidine-2-carboxamide], for which, in the data set on AGS (Homo sapiens, AGS, 96 h), the IC50 is 13 nM. This molecule returned a DC50 on KRAS G12D [1] of 18 nM. The microsomal CLint in “in vitro [2]” amounted to 46.5 µL/min/mg; in “in vitro [3]” it was 25.2 µL/min/mg; in the data set “in vitro [4]”, 18.9 µL/min/mg; in the data set “in vitro [5]”, 50.5 µL/min/mg. On KRAS G12D [6], this molecule showed a Dmax of 95%.

For the molecule `CCc1c(F)ccc2cc(O)cc(-c3ncc4c(N5CCC[C@@](C)(O)C5)nc(OCC5(CN6CCC(N7CCN(c8cc([C@H](C(=O)N9C[C@H](O)C[C@H]9C(=O)N[C@@H](C)c9ccc(-c%10scnc%10C)cc9)C(C)C)on8)CC7)CC6)CC5)nc4c3F)c12` [Compound 115], the IC50 in the data set on AGS (Homo sapiens, AGS, 96 h) turned out to be 29 nM. Moreover, at KRAS G12D [1], the DC50 stood at 21 nM. The microsomal CLint in “in vitro [2]” amounted to 32.1 µL/min/mg; in “in vitro [3]”, 13.8 µL/min/mg; in the data set “in vitro [4]”, 15.9 µL/min/mg; in the data set “in vitro [5]”, 18.3 µL/min/mg. The molecule also came in with a Dmax at KRAS G12D [6] of 95%.

For `CCc1c(F)ccc2cc(O)cc(-c3ncc4c(N5CCC[C@@](C)(O)C5)nc(OCC5(CN6CCC(c7ccc(-c8cn([C@H](C(=O)N9C[C@H](O)C[C@H]9C(=O)N[C@@H](C)c9ccc(-c%10scnc%10C)cc9)C(C)(C)C)nn8)cc7)CC6)CC5)nc4c3F)c12` [Compound 119], in the data set on AGS (Homo sapiens, AGS, 96 h), the IC50 is 37 nM. The microsomal CLint in the data set “in vitro [2]” amounted to 6.1 µL/min/mg; in the data set “in vitro [3]”, 9.1 µL/min/mg; in “in vitro [4]”, 10.4 µL/min/mg; in the data set “in vitro [5]”, 14.9 µL/min/mg.

As for `C=C1CN2[C@H](COc3ccc(-c4cn([C@H](C(=O)N5C[C@H](O)C[C@H]5C(=O)N[C@@H](C)c5ccc(-c6scnc6C)cc5)C(C)C)nn4)cn3)CC[C@@]2(COc2nc(N3CCC[C@@](C)(O)C3)c3cnc(-c4cc(O)cc5ccc(F)c(CC)c45)c(F)c3n2)C1` [Compound 124], the IC50 in the data set on AGS (Homo sapiens, AGS, 96 h) turned out to be 15 nM; with SW620 (Homo sapiens, SW-620, 96 h), 135 nM. The molecule also registered a DC50 on KRAS G12D [1] of 21 nM. The microsomal CLint stood at 49.7 µL/min/mg in the data set “in vitro [2]”, 9.1 µL/min/mg in the data set “in vitro [3]”, 18.6 µL/min/mg in the data set “in vitro [4]” and 88 µL/min/mg in the data set “in vitro [5]”. The molecule also yielded a Dmax at KRAS G12D [6] of 95%.

For the molecule `CCc1c(F)ccc2cc(O)cc(-c3ncc4c(N5CCC[C@@](C)(O)C5)nc(OCC5(CN6CCN(c7cnc(-c8cn([C@H](C(=O)N9C[C@H](O)C[C@H]9C(=O)N[C@@H](C)c9ccc(-c%10scnc%10C)cc9)C(C)C)nn8)cn7)CC6)CC5)nc4c3F)c12` [Compound 134], the IC50 with AGS (Homo sapiens, AGS, 96 h) was 10 nM; in the data set with SW620 (Homo sapiens, SW-620, 96 h), 58 nM. Also, on KRAS G12D [1], the DC50 was determined as 5.9 nM. Moreover, the microsomal CLint in “in vitro [2]” was 28.4 µL/min/mg; in the data set “in vitro [3]” it was 3 µL/min/mg; in “in vitro [4]” it was 6.4 µL/min/mg; in “in vitro [5]” it was 5.5 µL/min/mg. The molecule also yielded a Dmax on KRAS G12D [6] of 95%.

Consider `CCc1c(F)ccc2cc(O)cc(-c3ncc4c(N5CCC[C@@](C)(O)C5)nc(OCC5(CN6CCC(n7cc(-c8cn([C@H](C(=O)N9C[C@H](O)C[C@H]9C(=O)N[C@@H](C)c9ccc(-c%10scnc%10C)cc9)C(C)C)nn8)cn7)CC6)CC5)nc4c3F)c12` [Compound 138], for which the IC50 with AGS (Homo sapiens, AGS, 96 h) was found to be 14 nM; with SW620 (Homo sapiens, SW-620, 96 h), 102 nM. The DC50 on KRAS G12D [1] was found to be 13 nM. Further, the microsomal CLint in the data set “in vitro [2]” is 11.2 µL/min/mg; in “in vitro [3]” it was 5.7 µL/min/mg; in the data set “in vitro [4]”, 13.6 µL/min/mg; in “in vitro [5]”, 25.5 µL/min/mg. Also, at KRAS G12D [6], the Dmax was determined as 95%.

With `CCc1c(F)ccc2cc(O)cc(-c3ncc4c(N5CCC[C@@](C)(O)C5)nc(OCC5(CN6CCC(Oc7cnc(-c8cn([C@H](C(=O)N9C[C@H](O)C[C@H]9C(=O)N[C@@H](CO)c9ccc(-c%10scnc%10C)cc9)C(C)C)nn8)cn7)CC6)CC5)nc4c3F)c12` [Compound 178], the IC50 in the data set on AGS amounted to 2.5 nM; in the data set on SW620, 9.4 nM; in the data set on H358, 5.7 nM.

Take `CCc1c(F)ccc2cc(O)cc(-c3ncc4c(N5CCC[C@@](C)(O)C5)nc(OCC5(CN6CCN(C7CN(c8cnc(-c9cn([C@H](C(=O)N%10C[C@H](O)C[C@H]%10C(=O)N[C@@H](C)c%10ccc(-c%11scnc%11C)cc%10)C(C)C)nn9)cn8)C7)CC6)CC5)nc4c3F)c12` [Compound 183]: the results for the IC50 with AGS, with SW620 and with H358 were 3 nM, 11 nM and 12 nM, respectively.

As for `CCc1c(F)ccc2cc(O)cc(-c3ncc4c(N5CCC[C@@](C)(O)C5)nc(OCC5(CN6CCC7(CC6)CN(Cc6cnc(-c8cn([C@H](C(=O)N9C[C@H](O)C[C@H]9C(=O)N[C@@H](C)c9ccc(-c%10scnc%10C)cc9)C(C)C)nn8)cn6)C7)CC5)nc4c3F)c12` [Compound 189], the IC50 was 2.9 nM in the data set on AGS, 13 nM in the data set on SW620 and 15 nM with H358.

On to `CCc1c(F)ccc2cc(O)cc(-c3ncc4c(N5CCC[C@@](C)(O)C5)nc(OCC5(CN6CCC(c7ccc(-c8cn([C@H](C(=O)N9C[C@H](O)C[C@H]9C(=O)N[C@@H](C)c9ccc(-c%10scnc%10C)cc9)C(C)C)nn8)cn7)CC6)CC5)nc4c3F)c12` [Compound 203], for which the IC50 in the data set with AGS (Homo sapiens, AGS, 96 h) was found to be 11 nM; in the data set with SW620 (Homo sapiens, SW-620, 96 h) it was 47 nM. At KRAS G12D [1], the DC50 came to 14 nM. Further, on KRAS G12D [6], the Dmax was 95%.

The values above are taken from patent EP4631940A1, “COMPOUND TARGETING PAN-KRAS PROTEIN DEGRADATION AGENT AND USE THEREOF” (Betta Pharmaceuticals Co., Ltd., priority 2022, dated 2024).
